This experiment has as its system S. cerevisiae Mot1-301 ts growth rescue, BacTiter-Glo ATP luminescence. In words: growth rescue of Mot1-301 ts yeast, confirmation, SUMOylation pathway inhibitor project, whole organism, S. cerevisiae, Mot1-301 ts mutant, luminescence, dose retest (AID 463204).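 Further: growth at restrictive 38.5 degrees C of Mot1-301 OY566 strain; actives raise luminescence by restoring growth of the ts mutant at high temperature.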

The source made the active and inactive calls.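 How the source made its calls: active means AC50 no more than ten times the top concentration tested, that is within one log above it; inconclusive means flat curve fit with activity between 30% and 70%, or invalid poor fit; inactive means AC50 beyond ten times the top tested dose.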 Where only a bound is given, the exact number is not on record here.

Regarding `COc1cccc(/C=C2\SC(N3CCC(C)CC3)=NC2=O)c1OC`, the AC50 was > 42 µM (inactive).
The same measure for `COCCn1c(SCC(=O)N2CCCC2)nnc1-c1ccoc1C`: > 42 µM (inactive); for `CCn1c(SC(=O)NC2CCCCC2)nnc1-c1cccs1`: 11.6 µM; for `CC(=O)c1ccc(N=C2SCCCN2C(=O)C2CCCC2)cc1`: > 42 µM (inactive).
The same measure for `CC1(C)CC(=O)C(CC2CCCCC2=O)C(=O)C1` (stereo not drawn): > 42 µM (inactive); for `CC(=O)Nc1cccc(OCC(=O)NS(=O)(=O)c2ccc(C)cc2)c1`: > 42 µM (inactive).
With `COc1cc(C(=O)OCC(=O)NC(C)CCc2ccccc2)cc(OC)c1OC` (stereo not drawn), the AC50 is > 42 µM (inactive).
For `CCN1CSC(=S)N(Cc2ccc(OC)cc2)C1`, the AC50 is 4.01 µM.
As for `NC(=O)NC(=O)CSc1nc(C2CCCCC2)n(-c2ccccc2)n1`, the figure is > 42 µM (inactive); as for `CCOC(=O)Cc1csc(NC(=O)NC2(C(F)(F)F)Oc3ccccc3O2)n1`, > 42 µM (inactive).
The same measure for `CC(C)C(=O)NNc1ccc(C(F)(F)F)cn1`: > 42 µM (inactive); for `CCOC(=O)c1[nH]c2ccc(F)cc2c1NC(=O)CCN1CCOCC1`: > 42 µM (inactive); for `COC(=O)C1(Cc2cc(-c3ccccc3)no2)CCN(C(=O)OC(C)(C)C)CC1`: > 42 µM (inactive).
For the compound `O=C(COc1ncnc2ccccc12)Nc1ccc(Cl)c(S(=O)(=O)N2CCOCC2)c1`, the AC50 is > 42 µM (inactive).
As to `Cc1nc2c3ccccc3nc(NNC(=O)CCC(=O)N3CCCC(C)C3)n2n1` (stereo not drawn), the AC50 is > 42 µM (inactive).
The same measure for `COCCN(C(=O)CSc1nnc(-c2ccc(C)cc2)n1N)c1c(N)n(Cc2ccccc2)c(=O)[nH]c1=O`: > 42 µM (inactive).
As for `CSc1nsc(SCC(=O)Nc2cccc(C(=O)O)c2)n1`, the figure is > 42 µM (inactive).
The same measure for `O=C(OCCCCOC(=O)c1ccccc1)c1ccccc1`: > 42 µM (inactive); for `COc1ccc(/C=C/C(=O)NC(=S)Nc2ccccn2)cc1`: > 42 µM (inactive).
`Cc1ccc(S(=O)(=O)NCCS(=O)(=O)N2CCN(c3ccc(F)cc3)CC2)cc1`: the AC50 is > 42 µM (inactive).
As for `O=C(CN1CCN(Cc2ccc(Cl)cc2)CC1)N/N=C/c1ccncc1`, the figure is > 42 µM (inactive); as for `COc1ccccc1N1CCN(C(=O)c2sc3ncnc(N4CCN(c5ccccn5)CC4)c3c2C)CC1`, > 42 µM (inactive); as for `COCCCN1C(=O)c2ccc(C(=O)Nc3ccc(OC)cc3OC)cc2C1=O`, > 42 µM (inactive).
As for `O=S(=O)(NCCN1CCCC1)c1cccc2cccnc12`, the figure is > 42 µM (inactive); as for `N#CC1=C(SCC(N)=O)NC(=O)CC1c1ccccc1Cl` (stereo not drawn), 28.4 µM.
The same measure for `Nc1nc(SCc2nc3scc(-c4cccs4)c3c(=O)[nH]2)n[nH]1`: > 42 µM (inactive).
For the compound `COc1ccccc1N1C(=O)c2ccccc2NC1C(OC)OC` (stereo not drawn), the AC50 was > 42 µM (inactive).
`CC1C(=O)CC(c2ccccc2)NC1c1ccccc1` (stereo not drawn): the AC50 was > 42 µM (inactive).
As for `O=C(COc1ccccc1Cl)c1ccc[nH]1`, the figure is > 42 µM (inactive).
On to `Cc1cc(S(=O)(=O)N2CCCC(N3CCOCC3)C2)c(C)cc1Cl` (stereo not drawn), for which the AC50 was > 42 µM (inactive).
As for `Cc1cccn2c(=O)c3cc(C(=O)NCc4cccnc4)c(=N)n(C(C)C)c3nc12`, the AC50 was > 42 µM (inactive).
The same measure for `COc1ccc(CN2C(=O)c3c(c(C)n(C)c3C)C2C(=O)NC2CCC(C)CC2)cc1` (stereo not drawn): > 21 µM (inactive); for `Cc1ccc(NC(=O)COc2ccccc2C(=O)NCCN(C)C)cc1`: > 42 µM (inactive); for `O=C(O)CCSc1ccc([N+](=O)[O-])cc1[N+](=O)[O-]`: 8.27 µM.
As for `CCOc1cc(-c2ccccc2)nc(N)n1`, the figure is > 42 µM (inactive).
As for `Cc1ccc(NC(=O)CSCC(=O)Nc2ccccc2N2CCCC2)cc1`, the figure is > 42 µM (inactive).
For `CCS(=O)(=O)N1CCC(C(=O)NCCCN2CCN(c3ccccc3F)CC2)CC1`, the AC50 is > 42 µM (inactive).
The same measure for `O=C(Nc1ccccc1N1CCOCC1)c1cc(Br)c(Br)s1`: > 42 µM (inactive); for `COc1ccc(C(=O)N/C(=C\c2cn(C)c3ccccc23)C(=O)OCCN(C)C)cc1`: > 42 µM (inactive); for `COc1ccc(S(=O)(=O)N2CCCC2CNC(=O)C(=O)NCc2ccccn2)cc1` (stereo not drawn): > 42 µM (inactive).
As for `CCCn1nc(C(=O)NNC(=O)c2cc(S(=O)(=O)NC)ccc2Br)c2ccccc2c1=O`, the figure is > 42 µM (inactive); as for `Cc1cccc(Cn2c(C(=O)OC(C)C)cc3c2ccn3C)c1`, > 42 µM (inactive); as for `CCCc1nc2c(nnn2Cc2ccccc2F)c(=O)[nH]1`, > 42 µM (inactive).
As for `Cc1nc(NC(=O)CSc2nc(N)cc(N)n2)sc1C`, the figure is > 42 µM (inactive); as for `O=C(CSc1nnc(-c2ccccc2Cl)o1)Oc1ccc(Br)cc1`, > 42 µM (inactive).
With `O=C(Nc1ccc(OC(F)(F)F)cc1)c1ccc2ccccc2n1`, the AC50 is > 42 µM (inactive).
As for `O=[N+]([O-])c1ccc(N/N=C/c2cccc(O)c2)cc1`, the figure is 29.4 µM; as for `CCc1cc2c(=O)c(-c3nc4ccccc4n3C)c(C)oc2c(CN2CCOCC2)c1O`, > 42 µM (inactive).
As for `Cc1ccccc1Cn1cc(NC(=O)c2cc3nc(-c4ccco4)cc(C(F)(F)F)n3n2)cn1`, the figure is > 42 µM (inactive).
As for `Cc1ccc(S(=O)(=O)N2CCN(C(=O)CSc3nc(N)cc(=O)[nH]3)CC2)c(C)c1`, the figure is > 42 µM (inactive).
Regarding `O=C(Cc1cccs1)Nc1cccc(-c2nnc(-c3ccco3)o2)c1`, the AC50 is > 42 µM (inactive).
The same measure for `Cc1ccc(C(=O)/C=C/c2ccc(-c3ccccc3[N+](=O)[O-])o2)cc1`: > 42 µM (inactive); for `CCOC(=O)CNC(=O)c1c(C)nn(C)c1Cl`: > 42 µM (inactive).
As for `CCOc1c(P(=S)(N(C)C)N(C)C)c(C)nn1-c1ccccc1`, the figure is > 42 µM (inactive); as for `O=C(COc1ccccc1)NCCS(=O)(=O)N1CCN(c2ccccc2)CC1`, > 42 µM (inactive).
`CC(OC(=O)c1cc(S(=O)(=O)N2CCOCC2)ccc1F)C(=O)NCc1ccc2c(c1)OCO2` (stereo not drawn): the AC50 is > 42 µM (inactive).
As for `CC(C)c1ccc2c(c1)CCC1C(C)(CN)CCCC21C` (stereo not drawn), the figure is 14.3 µM.
As for `Cc1nc2ccccc2c(=O)n1CC(=O)N1CCOCC1`, the AC50 is > 42 µM (inactive).
As for `O=C1Nc2ccccc2/C1=C/c1ccc([N+](=O)[O-])cc1`, the figure is > 42 µM (inactive); as for `COc1cc2c(=O)n(-c3ccc(C)cc3)c(=O)n(CC(=O)c3ccc4c(c3)OCO4)c2cc1OC`, > 42 µM (inactive).
As for `O=c1[nH]cnc2sc3c(c12)CCC3`, the figure is > 42 µM (inactive).
Turning to `Cc1c(C(=O)N2CCOCC2)c(S(=O)(=O)Nc2cccc(Br)c2)c(C)n1C`, the AC50 was > 42 µM (inactive).
The same measure for `O=C(O)CCC(=O)Nc1cccc(C(=O)Nc2ccc(Br)cc2)c1`: > 42 µM (inactive); for `CC(C)CCNC(=O)Nc1ccc2c(c1)N(C)C(=O)CS2`: > 42 µM (inactive).
As for `c1ccc2c(C[C@@H]3CNCCN3CCCCC3CCCCC3)cccc2c1`, the figure is 15.6 µM.
The same measure for `CN(C(=O)COC(=O)c1cc2ccccc2cc1O)c1c(N)n(Cc2ccccc2)c(=O)[nH]c1=O`: > 42 µM (inactive).
Turning to `O=C(c1ccc([N+](=O)[O-])o1)N1CCN(c2nc3c(Cl)cccc3s2)CC1`, the AC50 was 6.55 µM.
As for `CC(C)Oc1ccc(C2(C#N)CC[N+](C)(C)CC2)cc1`, the figure is > 42 µM (inactive).
Take `CCOc1cc(/C=N/NC(=O)C(=O)N/N=C/c2ccc(O)c(OCC)c2)ccc1O`: the AC50 is > 42 µM (inactive).
As for `CC1(C)CC(=O)C2=C(C1)OC(N)=C(C#N)C21C(=O)N(CN2CCOCC2)c2ccccc21` (stereo not drawn), the AC50 is > 42 µM (inactive).
As for `O=C(Nc1ccc2nc(-c3ccc4nc[nH]c4c3)[nH]c2c1)c1cccs1`, the figure is > 42 µM (inactive); as for `O=C1NC(Cc2c[nH]c3ccccc23)C(=O)N1Cc1ccc(CN2C(=O)NC(Cc3c[nH]c4ccccc34)C2=O)cc1` (stereo not drawn), > 42 µM (inactive).
As for `c1ccc2[nH]c(CSc3nccs3)nc2c1`, the AC50 was > 42 µM (inactive).
Consider `CC1=CC(=O)C=CC1(C)C(Cl)(Cl)Cl` (stereo not drawn), for which the AC50 was > 42 µM (inactive).
On to `COc1ccccc1-n1nnnc1SCC(=O)Nc1ccc(C)c(N)c1`, for which the AC50 is > 42 µM (inactive).
Consider `COc1ccc(NS(=O)(=O)c2cccc(C(=O)NCCCn3ccnc3)c2)cc1`, for which the AC50 is > 21 µM (inactive).
As for `O=S(=O)(O)c1ccc(N=NNc2ccc(Br)cc2)cc1`, the figure is > 42 µM (inactive).
As to `CC(C)C[C@@H](CO)N1CCN(Cc2cccnc2)CCC1=O`, the AC50 was > 42 µM (inactive).
As for `COC(=O)CN1C(=O)c2cccc3cccc1c23`, the AC50 is > 42 µM (inactive).
As for `O=C(COC(=O)Cc1ccsc1)NC1CCCCCC1`, the figure is > 42 µM (inactive); as for `O=C(COc1ccccc1)Nc1cccc(-c2nnc(-c3ccccc3)o2)c1`, > 42 µM (inactive); as for `CCC(=O)c1c[nH]c(C(=O)NCCCn2ccnc2)c1`, > 42 µM (inactive).
The same measure for `CC1(OC(=O)CCc2ccccc2)C(=O)C=C2C=C(c3ccc(C#N)cc3)N(C3CCCC3)C=C2C1=O` (stereo not drawn): > 42 µM (inactive).
For `Cc1ccc(-c2nnc(SCC#N)n2N)cc1`, the AC50 is > 42 µM (inactive).
`CN(Cc1ccccc1)c1ccc(S(=O)(=O)N2CCC(C(=O)O)CC2)cc1[N+](=O)[O-]`: the AC50 is > 42 µM (inactive).
The same measure for `CC(=O)OCC(OC(C)=O)C(OC(C)=O)C(OC(C)=O)C(=O)Nc1ccccc1` (stereo not drawn): > 42 µM (inactive).
On to `S=C(NCCc1ccccc1)Nc1ccccc1Cl`, for which the AC50 was > 42 µM (inactive).
The same measure for `COc1ccc(CCN(C)CCCC(C#N)(c2ccc(OC)c(OC)c2)C(C)C)cc1OC` (stereo not drawn): > 42 µM (inactive).

Usually AC50 stands for the midpoint of the concentration-response curve, whichever way the signal moves.

(Values after PubChem BioAssay AID463204 (Broad Institute, 2010).)
